Results taken from ChEMBL document CHEMBL5120857, “Rational design, synthesis and biological evaluation of dual PARP-1/2 and TNKS1/2 inhibitors for cancer therapy” (Eur J Med Chem, 2022).
The source made the active and inactive calls. No cut-off for these calls is given here.

Columns and labels:
[1] = biological target: T1, Poly [ADP-ribose] polymerase tankyrase-2 (Homo sapiens, UniProt Q9H2K2); assay: Inhibition of TNKS2 (unknown origin) using biotin-NAD+ as substrate incubated for 1 hr in the presence of deoxy-oligonucleotide by ELISA analysis relative to control
T1 sequence (Q9H2K2 whole entry): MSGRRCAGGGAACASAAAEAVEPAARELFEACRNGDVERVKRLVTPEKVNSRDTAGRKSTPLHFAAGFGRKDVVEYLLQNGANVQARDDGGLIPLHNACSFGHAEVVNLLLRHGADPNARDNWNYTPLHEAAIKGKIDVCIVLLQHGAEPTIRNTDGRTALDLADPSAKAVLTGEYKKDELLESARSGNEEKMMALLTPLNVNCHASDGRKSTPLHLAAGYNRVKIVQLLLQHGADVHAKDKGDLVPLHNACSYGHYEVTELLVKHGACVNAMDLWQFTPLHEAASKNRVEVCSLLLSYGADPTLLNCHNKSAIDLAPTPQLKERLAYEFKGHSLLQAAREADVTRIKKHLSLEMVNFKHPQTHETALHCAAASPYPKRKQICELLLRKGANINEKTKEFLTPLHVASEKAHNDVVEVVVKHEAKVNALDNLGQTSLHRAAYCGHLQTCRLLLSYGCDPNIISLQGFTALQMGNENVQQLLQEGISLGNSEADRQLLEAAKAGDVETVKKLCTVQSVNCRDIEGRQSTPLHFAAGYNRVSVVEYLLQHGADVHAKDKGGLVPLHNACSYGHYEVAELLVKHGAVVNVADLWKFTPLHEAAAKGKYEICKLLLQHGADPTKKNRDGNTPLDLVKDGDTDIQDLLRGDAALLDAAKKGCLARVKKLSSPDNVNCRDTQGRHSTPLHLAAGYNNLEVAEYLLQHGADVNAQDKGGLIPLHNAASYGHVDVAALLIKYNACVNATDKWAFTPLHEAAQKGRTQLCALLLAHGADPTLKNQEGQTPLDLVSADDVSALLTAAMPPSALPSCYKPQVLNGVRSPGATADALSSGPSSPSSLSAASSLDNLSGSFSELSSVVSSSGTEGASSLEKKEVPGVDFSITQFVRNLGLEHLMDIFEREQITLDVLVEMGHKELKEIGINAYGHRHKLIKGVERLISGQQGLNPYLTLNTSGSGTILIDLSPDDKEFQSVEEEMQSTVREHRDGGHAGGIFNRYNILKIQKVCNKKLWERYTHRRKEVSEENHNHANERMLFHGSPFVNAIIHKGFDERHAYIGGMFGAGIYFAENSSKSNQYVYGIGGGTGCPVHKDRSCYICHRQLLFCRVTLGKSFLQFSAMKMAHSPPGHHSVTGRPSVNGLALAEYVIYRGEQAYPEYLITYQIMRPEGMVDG

[2] = biological target: T2, Poly [ADP-ribose] polymerase tankyrase-2 (Homo sapiens) (UniProt Q9H2K2); details: dose 10.0 nM, time 1.0 hrs
T2 sequence (whole entry): T1 sequence (Q9H2K2 whole entry)

[3] = Cytotoxicity against mouse AML12 cells assessed as reduction in cell viability incubated for 7 days by MTT assay; type: toxicity, cell-based; details: time 7 day
MDA-MB-468 = assay: Antiproliferative activity against human MDA-MB-468 cells assessed as inhibition of cell growth incubated for 7 days by MTT assay; type: functional, cell-based; details: MDA-MB-468, 168 h
[4] = biological target: T3, Poly [ADP-ribose] polymerase tankyrase-1 (Homo sapiens, UniProt O95271); assay: Inhibition of TNKS1 (unknown origin) using biotin-NAD+ as substrate incubated for 1 hr in the presence of deoxy-oligonucleotide by ELISA analysis relative to control
T3 sequence (O95271 whole entry): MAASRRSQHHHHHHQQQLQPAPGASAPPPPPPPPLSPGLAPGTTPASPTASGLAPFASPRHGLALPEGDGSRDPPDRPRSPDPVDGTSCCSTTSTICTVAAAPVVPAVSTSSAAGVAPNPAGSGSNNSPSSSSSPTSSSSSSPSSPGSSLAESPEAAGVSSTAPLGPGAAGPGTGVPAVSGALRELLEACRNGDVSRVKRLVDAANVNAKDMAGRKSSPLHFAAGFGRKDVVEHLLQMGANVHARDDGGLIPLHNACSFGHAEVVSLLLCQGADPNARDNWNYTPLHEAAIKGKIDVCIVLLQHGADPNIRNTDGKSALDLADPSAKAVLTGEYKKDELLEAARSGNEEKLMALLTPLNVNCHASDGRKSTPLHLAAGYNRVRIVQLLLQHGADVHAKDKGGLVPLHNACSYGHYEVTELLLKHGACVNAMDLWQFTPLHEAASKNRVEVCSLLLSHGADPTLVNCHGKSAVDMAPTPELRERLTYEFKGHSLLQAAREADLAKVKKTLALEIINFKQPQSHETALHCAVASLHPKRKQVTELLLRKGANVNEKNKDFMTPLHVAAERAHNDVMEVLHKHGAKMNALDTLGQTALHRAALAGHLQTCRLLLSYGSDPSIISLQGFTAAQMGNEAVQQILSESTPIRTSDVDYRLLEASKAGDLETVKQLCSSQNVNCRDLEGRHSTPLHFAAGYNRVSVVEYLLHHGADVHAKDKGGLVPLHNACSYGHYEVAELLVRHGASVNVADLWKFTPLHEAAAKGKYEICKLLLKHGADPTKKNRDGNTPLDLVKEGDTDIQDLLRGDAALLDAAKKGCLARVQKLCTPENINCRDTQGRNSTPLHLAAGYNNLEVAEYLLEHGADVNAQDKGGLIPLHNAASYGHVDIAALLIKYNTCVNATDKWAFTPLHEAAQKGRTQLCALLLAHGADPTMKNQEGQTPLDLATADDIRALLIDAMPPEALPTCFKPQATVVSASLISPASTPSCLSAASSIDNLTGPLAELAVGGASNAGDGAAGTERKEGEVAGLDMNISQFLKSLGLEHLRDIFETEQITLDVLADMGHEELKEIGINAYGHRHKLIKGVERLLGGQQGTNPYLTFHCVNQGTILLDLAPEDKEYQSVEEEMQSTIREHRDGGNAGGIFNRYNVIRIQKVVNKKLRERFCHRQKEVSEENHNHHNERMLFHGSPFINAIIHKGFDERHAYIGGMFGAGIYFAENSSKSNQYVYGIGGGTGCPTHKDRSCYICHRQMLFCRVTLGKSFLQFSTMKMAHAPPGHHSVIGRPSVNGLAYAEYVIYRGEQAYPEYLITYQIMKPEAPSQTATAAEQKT

MDA-MB-231 = assay: Antiproliferative activity against human MDA-MB-231 cells assessed as inhibition of cell growth incubated for 7 days by MTT assay; type: functional, cell-based; details: MDA-MB-231, 168 h
[5] = biological target: T4, Poly [ADP-ribose] polymerase 1 (Homo sapiens, UniProt P09874); assay: Inhibition of PARP-1 (unknown origin) using biotinylated NAD+ as substrate incubated for 45 mins in the presence of deoxy-oligonucleotide by microplate reader method relative to control
HCT-116 [6] = assay: Antiproliferative activity against human HCT-116 cells assessed as inhibition of cell growth incubated for 7 days by MTT assay; type: functional, cell-based; details: HCT-116, 168 h
[7] = biological target: T4, Poly [ADP-ribose] polymerase 1; details: dose 10.0 nM, time 45.0 min
[8] = biological target: T5, Poly [ADP-ribose] polymerase tankyrase-1 (Homo sapiens) (UniProt O95271); details: dose 10.0 nM, time 1.0 hrs
T5 sequence (whole entry): T3 sequence (O95271 whole entry)

HCT-116 [9] = assay: Induction of cell cycle arrest in human HCT-116 cells assessed as S phase cells at 5 uM incubated for 3 days by propidium iodide staining based flow cytometry (reference value: 11.26 %); type: functional; details: time 3 day
HCT-116 [10] = assay: Induction of apoptosis in human HCT-116 cells assessed as necrotic cells at 5 uM incubated for 3 days by annexinV-FITC/propidium iodide staining based flow cytometry (reference value: 3.65 %); type: functional; details: time 3 day
HCT-116 [11] = assay: Induction of cell cycle arrest in human HCT-116 cells assessed as G0/G1 phase cells at 5 uM incubated for 3 days by propidium iodide staining based flow cytometry (reference value: 68.35 %); type: functional; details: time 3 day
HCT-116 [12] = assay: Induction of apoptosis in human HCT-116 cells assessed as late apoptotic cells at 5 uM incubated for 3 days by annexinV-FITC/propidium iodide staining based flow cytometry (reference value: 8.71 %); type: functional; details: time 3 day
HCT-116 [13] = assay: Induction of apoptosis in human HCT-116 cells assessed as viable cells at 5 uM incubated for 3 days by annexinV-FITC/propidium iodide staining based flow cytometry (reference value: 60.0 %); type: functional; details: time 3 day
HCT-116 [14] = assay: Induction of apoptosis in human HCT-116 cells assessed as early apoptotic cells at 5 uM incubated for 3 days by annexinV-FITC/propidium iodide staining based flow cytometry (reference value: 7.67 %); type: functional; details: time 3 day
HCT-116 [15] = assay: Inhibition of PARP in human HCT-116 cells assessed as decrease in pADPr levels at 10 uM by Western blot analysis; type: cell-based
HCT-116 [16] = assay: Antitumor activity against human HCT-116 cells xenografted in BALB/c nude mouse assessed as tumor growth inhibition at 50 mg/kg, ip administered once daily for 28 days; type: functional; details: time 28 day
HCT-116 [17] = assay: Induction of cell cycle arrest in human HCT-116 cells assessed as G2/M phase cells at 5 uM incubated for 3 days by propidium iodide staining based flow cytometry (reference value: 68.35 %); type: functional; details: time 3 day
HCT-116 [18] = assay: Inhibition of Wnt/beta-Catenin signaling in human HCT-116 cells assessed as decrease in cyclin D1 levels at 10 uM by Western blot analysis; type: cell-based
HCT-116 [19] = assay: Inhibition of Wnt/beta-Catenin signaling in human HCT-116 cells assessed as increase in axin2 levels at 10 uM by Western blot analysis; type: cell-based

T4 sequence (P09874 whole entry): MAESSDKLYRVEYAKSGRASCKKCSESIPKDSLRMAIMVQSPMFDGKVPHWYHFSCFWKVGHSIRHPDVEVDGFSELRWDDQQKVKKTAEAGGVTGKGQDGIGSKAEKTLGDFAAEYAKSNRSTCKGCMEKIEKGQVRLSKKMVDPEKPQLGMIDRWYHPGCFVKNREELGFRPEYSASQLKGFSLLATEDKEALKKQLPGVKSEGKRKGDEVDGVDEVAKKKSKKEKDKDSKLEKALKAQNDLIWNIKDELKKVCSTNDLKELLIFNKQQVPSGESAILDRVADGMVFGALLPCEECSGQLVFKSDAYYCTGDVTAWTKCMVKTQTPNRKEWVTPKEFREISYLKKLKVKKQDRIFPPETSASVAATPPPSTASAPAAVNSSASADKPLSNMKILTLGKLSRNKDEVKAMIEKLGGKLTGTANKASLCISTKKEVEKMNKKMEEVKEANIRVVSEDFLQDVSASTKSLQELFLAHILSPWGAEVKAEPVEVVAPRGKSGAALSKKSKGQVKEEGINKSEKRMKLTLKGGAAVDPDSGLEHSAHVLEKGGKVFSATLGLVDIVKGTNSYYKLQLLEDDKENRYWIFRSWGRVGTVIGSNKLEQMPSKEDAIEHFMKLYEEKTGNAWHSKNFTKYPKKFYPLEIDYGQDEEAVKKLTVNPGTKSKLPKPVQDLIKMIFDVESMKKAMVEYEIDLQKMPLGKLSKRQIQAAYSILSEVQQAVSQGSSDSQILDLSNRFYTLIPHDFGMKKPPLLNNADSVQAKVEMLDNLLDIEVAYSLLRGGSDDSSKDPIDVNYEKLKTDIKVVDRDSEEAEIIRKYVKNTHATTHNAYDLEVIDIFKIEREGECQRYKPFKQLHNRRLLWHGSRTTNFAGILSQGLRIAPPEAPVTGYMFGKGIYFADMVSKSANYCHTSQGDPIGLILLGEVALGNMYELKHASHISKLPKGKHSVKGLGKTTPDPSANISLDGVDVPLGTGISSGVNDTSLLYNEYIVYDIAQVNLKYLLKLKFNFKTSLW

IC50 [1]	inhibition [2]	IC50 (MDA-MB-468)	IC50 [4]	IC50 (MDA-MB-231)	IC50 [5]	IC50 (HCT-116 [6])	inhibition [7]	inhibition [8]	Structure (SMILES)	CC50 at 168 h [3]	other results
171 nM	38%	110 nM	214 nM	960 nM	1.54 nM	510 nM	89%	14%	O=C(Nc1ccc(F)cc1)c1ccc(NC(=O)N2CCN(C(=O)c3cc(Cc4n[nH]c(=O)c5ccccc45)ccc3F)CC2)cc1	37400 nM	–
–	11.5%	–	–	–	–	–	97%	–	COc1ccc(NC(=O)c2ccc(NC(=O)C3CCN(C(=O)c4cc(Cc5n[nH]c(=O)c6ccccc56)ccc4F)CC3)cc2)cc1	–	–
367 nM	28%	–	551 nM	–	4.08 nM	–	98%	12.5%	O=C(Nc1ccc(C(F)(F)F)cc1)c1ccc(NC(=O)N2CCN(C(=O)c3cc(Cc4n[nH]c(=O)c5ccccc45)ccc3F)CC2)cc1	–	–
–	28%	–	–	–	–	–	96%	–	O=C(Nc1cccc2cccnc12)c1ccc(NC(=O)N2CCN(C(=O)c3cc(Cc4n[nH]c(=O)c5ccccc45)ccc3F)CC2)cc1	–	–
–	–	–	–	–	–	–	–	86%	Oc1nc(-c2ccc(C(F)(F)F)cc2)nc2c1CSCC2	–	inhibition (HCT-116 [18]): Active; inhibition (HCT-116 [19]): Active; inhibition (HCT-116 [15]): Active
–	–	–	–	–	–	–	98%	–	COc1ccc(NC(=O)C2CCN(CC(=O)N3CCN(C(=O)c4cc(Cc5n[nH]c(=O)c6ccccc56)ccc4F)CC3)CC2)cc1	–	–

Second part, the compound before the results:

Structure (SMILES)	IC50 [1]	inhibition [2]	IC50 (MDA-MB-468)	IC50 [4]	IC50 (MDA-MB-231)	IC50 [5]	IC50 (HCT-116 [6])	inhibition [7]	inhibition [8]	CC50 at 168 h [3]	other results
Cc1ccc(NC(=O)c2ccc(NC(=O)N3CCN(C(=O)c4cc(Cc5n[nH]c(=O)c6ccccc56)ccc4F)CC3)cc2)cc1	14 nM	48%	40 nM	39 nM	680 nM	0.49 nM	700 nM	99%	13%	49200 nM	–
O=C(c1cc(Cc2n[nH]c(=O)c3ccccc23)ccc1F)N1CCN(C(=O)C2CC2)CC1 [OLAPARIB]	–	–	2520 nM	–	5350 nM	–	5560 nM	–	–	31100 nM	Activity (HCT-116 [9]): 7.31%; Activity (HCT-116 [10]): 4.03%; Activity (HCT-116 [11]): 58.46%; Activity (HCT-116 [12]): 14.3%; Activity (HCT-116 [13]): 68.8%; Activity (HCT-116 [14]): 12.9%; inhibition (HCT-116 [15]): Active; TGI (HCT-116 [16]): 15.36%; Activity (HCT-116 [17]): 34.23%
O=C(Nc1cccc(F)c1)c1ccc(NC(=O)N2CCN(C(=O)c3cc(Cc4n[nH]c(=O)c5ccccc45)ccc3F)CC2)cc1	–	26%	–	–	–	–	–	98%	–	–	–
O=c1[nH]nc2c3c(cccc13)N=C(CN1Cc3ccccc3C1)N2 [2X-121]	–	–	4170 nM	–	2890 nM	–	6710 nM	–	–	1390 nM	Activity (HCT-116 [9]): 11.73%; Activity (HCT-116 [10]): 6.45%; Activity (HCT-116 [11]): 64.78%; Activity (HCT-116 [12]): 12.6%; inhibition (HCT-116 [18]): Active; viability at 5 µM (HCT-116 [13]; Homo sapiens, HCT-116, 72 h, read-out: Activity): 74.8%; Activity (HCT-116 [14]): 6.11%; inhibition (HCT-116 [19]): Active; inhibition (HCT-116 [15]): Active; inhibition in vivo at 50 mg/kg (HCT-116 [16]; Mus musculus, HCT-116, 672 h, read-out: TGI): 20.2%; Activity (HCT-116 [17]): 23.49%
COc1ccc(NC(=O)c2ccc(NC(=O)N3CCN(C(=O)c4cc5cccc(C(N)=O)c5o4)CC3)cc2)cc1	–	22.5%	–	–	–	–	–	51.5%	22.5%	–	–
O=C(Nc1ccccc1F)c1ccc(NC(=O)N2CCN(C(=O)c3cc(Cc4n[nH]c(=O)c5ccccc45)ccc3F)CC2)cc1	296 nM	36%	–	506 nM	–	0.98 nM	–	99%	10.5%	–	–
Cc1ccccc1NC(=O)c1ccc(NC(=O)N2CCN(C(=O)c3cc(Cc4n[nH]c(=O)c5ccccc45)ccc3F)CC2)cc1	110 nM	40%	70 nM	130 nM	1290 nM	1.62 nM	1040 nM	99%	20%	86700 nM	–
Cc1cccc(NC(=O)c2ccc(NC(=O)N3CCN(C(=O)c4cc(Cc5n[nH]c(=O)c6ccccc56)ccc4F)CC3)cc2)c1	–	29.5%	–	–	–	–	–	99%	–	–	–
